Laboratory results from ChEMBL document CHEMBL2069259, “Preclinical strategy to reduce clinical hepatotoxicity using in vitro bioactivation data for >200 compounds” (Chem Res Toxicol, 2012).

Key:
[1] = system: Liver microsomes; assay: Metabolic stability in human liver microsomes assessed as low signal/noise ratio (S/N of 1 to 10) by measuring GSH adduct formation at 100 uM after 90 mins by HPLC-MS analysis; assay type: ADME, Microsome; settings: 1.5 h
[2] = target: T1, CYP3A4 (Homo sapiens, UniProt P08684); assay: Inhibition of human CYP3A4 assessed as ratio of IC50 in absence of NADPH to IC50 for presence of NADPH using diethoxyfluorescein as substrate after 30 mins
T1 sequence (P08684 whole entry): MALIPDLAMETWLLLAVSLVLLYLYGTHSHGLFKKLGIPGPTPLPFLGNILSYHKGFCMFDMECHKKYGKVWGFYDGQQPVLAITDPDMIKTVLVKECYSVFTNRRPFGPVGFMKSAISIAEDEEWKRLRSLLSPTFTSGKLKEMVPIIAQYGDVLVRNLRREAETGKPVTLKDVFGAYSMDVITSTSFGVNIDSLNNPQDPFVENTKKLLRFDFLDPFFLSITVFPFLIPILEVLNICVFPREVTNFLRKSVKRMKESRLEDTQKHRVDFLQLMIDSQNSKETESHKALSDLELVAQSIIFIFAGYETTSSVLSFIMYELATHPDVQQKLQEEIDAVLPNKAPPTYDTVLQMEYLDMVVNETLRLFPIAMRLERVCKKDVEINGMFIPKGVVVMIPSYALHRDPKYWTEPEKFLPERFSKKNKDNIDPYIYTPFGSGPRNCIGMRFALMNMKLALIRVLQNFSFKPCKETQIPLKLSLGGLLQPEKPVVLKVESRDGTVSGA

[3] = system: Liver microsomes; settings: human, 1.5 h, 100 µM
[4] = target: T1, CYP3A4; assay: Inhibition of human CYP3A4 assessed as ratio of IC50 in absence of NADPH to IC50 for presence of NADPH using 7-benzyloxyquinoline as substrate after 30 mins
[5] = system: Liver microsomes; assay: Metabolic stability in human liver microsomes assessed as GSH adduct formation at 100 uM after 90 mins by HPLC-MS analysis; settings: 1.5 h
[6] = target: CYP2C19 (Homo sapiens, UniProt P33261); assay: Inhibition of human CYP2C19 assessed as ratio of IC50 in absence of NADPH to IC50 for presence of NADPH using 3-butyryl-7-methoxycoumarin as substrate after 30 mins
Chain of CYP2C19 (P33261 whole entry): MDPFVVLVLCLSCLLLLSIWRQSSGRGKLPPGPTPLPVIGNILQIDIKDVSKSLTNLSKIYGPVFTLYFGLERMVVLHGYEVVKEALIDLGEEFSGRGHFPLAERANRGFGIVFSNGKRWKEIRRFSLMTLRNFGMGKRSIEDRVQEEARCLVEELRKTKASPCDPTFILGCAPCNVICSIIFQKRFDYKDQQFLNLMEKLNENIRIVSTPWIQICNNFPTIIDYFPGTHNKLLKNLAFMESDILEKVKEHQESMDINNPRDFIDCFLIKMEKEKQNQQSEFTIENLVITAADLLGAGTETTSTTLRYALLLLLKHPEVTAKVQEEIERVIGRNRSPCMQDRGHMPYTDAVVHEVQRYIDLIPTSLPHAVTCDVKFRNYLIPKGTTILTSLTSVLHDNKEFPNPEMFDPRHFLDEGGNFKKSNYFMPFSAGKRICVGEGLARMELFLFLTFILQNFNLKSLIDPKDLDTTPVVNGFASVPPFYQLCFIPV

[7] = system: Liver microsomes; assay: Metabolic stability in human liver microsomes assessed as high signal/noise ratio (S/N of >100) by measuring GSH adduct formation at 100 uM after 90 mins by HPLC-MS analysis; settings: 1.5 h
[8] = target: CYP2D6 (Homo sapiens, UniProt P10635); assay: Inhibition of human CYP2D6 assessed as ratio of IC50 in absence of NADPH to IC50 for presence of NADPH using 4-methylaminoethyl-7-methoxycoumarin as substrate after 30 mins
Chain of CYP2D6 (P10635 whole entry): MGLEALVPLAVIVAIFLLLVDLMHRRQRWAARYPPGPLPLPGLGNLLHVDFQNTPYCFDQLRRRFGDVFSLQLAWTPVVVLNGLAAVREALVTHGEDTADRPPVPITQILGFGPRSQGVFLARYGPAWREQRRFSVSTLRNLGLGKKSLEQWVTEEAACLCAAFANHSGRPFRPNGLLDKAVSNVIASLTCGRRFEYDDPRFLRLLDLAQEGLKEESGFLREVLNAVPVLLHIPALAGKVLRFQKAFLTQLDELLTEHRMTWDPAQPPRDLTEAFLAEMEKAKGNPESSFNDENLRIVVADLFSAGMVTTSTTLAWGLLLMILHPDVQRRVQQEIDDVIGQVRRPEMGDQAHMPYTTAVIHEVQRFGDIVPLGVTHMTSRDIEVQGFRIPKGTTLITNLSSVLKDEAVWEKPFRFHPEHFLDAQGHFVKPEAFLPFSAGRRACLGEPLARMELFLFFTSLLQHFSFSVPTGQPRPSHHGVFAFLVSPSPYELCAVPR

[9] = target: T2, CYP1A2 (Homo sapiens, UniProt P05177); assay: Inhibition of human CYP1A2 assessed as ratio of IC50 in absence of NADPH to IC50 for presence of NADPH using ethoxyresorufin as substrate after 30 mins
T2 sequence (P05177 whole entry): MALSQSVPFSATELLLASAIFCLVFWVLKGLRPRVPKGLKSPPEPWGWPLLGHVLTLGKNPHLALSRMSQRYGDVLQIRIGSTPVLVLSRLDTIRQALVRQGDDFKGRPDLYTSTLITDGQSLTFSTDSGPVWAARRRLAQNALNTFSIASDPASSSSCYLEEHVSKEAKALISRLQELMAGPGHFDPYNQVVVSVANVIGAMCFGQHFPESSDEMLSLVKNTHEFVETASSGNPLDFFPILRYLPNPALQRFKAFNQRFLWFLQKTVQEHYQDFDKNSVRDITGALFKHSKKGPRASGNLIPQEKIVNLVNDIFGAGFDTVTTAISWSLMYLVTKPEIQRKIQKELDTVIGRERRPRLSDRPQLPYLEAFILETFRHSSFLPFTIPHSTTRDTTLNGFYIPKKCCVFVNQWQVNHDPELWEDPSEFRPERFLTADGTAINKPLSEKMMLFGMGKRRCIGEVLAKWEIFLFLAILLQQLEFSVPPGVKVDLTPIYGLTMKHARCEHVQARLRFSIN

[10] = probe 3-butyryl-7-methoxycoumarin
[11] = probe 4-methylaminoethyl-7-methoxycoumarin

N[C@@H](Cc1cc(I)c(Oc2ccc(O)c(I)c2)c(I)c1)C(=O)O [LIOTHYRONINE]
Stability [1]: Unstable

C#C[C@]1(O)CC[C@H]2[C@@H]3CCc4cc(OC)ccc4[C@H]3CC[C@@]21C [MESTRANOL]
IC50 shift at 0.5 h ([2]; probe diethoxyfluorescein): > 5 | Stability [3]: Unstable | IC50 shift at 0.5 h ([4]; probe 7-benzyloxyquinoline): > 5

Cc1cc(C(C)(C)C)c(O)c(C(C)(C)C)c1 [BUTYLATED HYDROXYTOLUENE]
Stability [1]: Unstable

C[C@]12C=CC(=O)C=C1CC[C@@H]1[C@@H]2C(=O)C[C@@]2(C)[C@H]1CC[C@]2(O)C(=O)CO [PREDNISONE]
Stability [1]: Unstable

Cc1cccc(CN2CCN(C(c3ccccc3)c3ccc(Cl)cc3)CC2)c1 (stereo not given) [MECLIZINE]
IC50 shift at 0.5 h ([2]; probe diethoxyfluorescein): 2 | Stability [5]: Stable | IC50 shift at 0.5 h ([4]; probe 7-benzyloxyquinoline): > 5 | IC50 shift at 0.5 h [6, 10]: > 5

CCCc1cc(=O)[nH]c(=S)[nH]1 [PROPYLTHIOURACIL]
Stability [7]: Unstable | IC50 shift at 0.5 h [2]: > 5 | IC50 shift at 0.5 h [4]: > 5

COc1cc2c(c(OC)c1OC)-c1ccc(OC)c(=O)cc1[C@@H](NC(C)=O)CC2 [COLCHICINE]
Stability [1]: Unstable

C[C@@H]1[C@H](O)[C@@H](C)/C=C/C=C/C=C/C=C/C=C/C=C/C=C/[C@H](O[C@@H]2O[C@H](C)[C@@H](O)[C@H](N)[C@@H]2O)C[C@@H]2O[C@](O)(C[C@@H](O)C[C@@H](O)[C@H](O)CC[C@@H](O)C[C@@H](O)CC(=O)O[C@H]1C)C[C@H](O)[C@H]2C(=O)O [AMPHOTERICIN B]
Stability [5]: Stable | IC50 shift at 0.5 h [6, 10]: < 2

COc1cc(C(=O)NS(=O)(=O)c2ccccc2C)ccc1Cc1cn(C)c2ccc(NC(=O)OC3CCCC3)cc12 [ZAFIRLUKAST]
IC50 shift at 0.5 h ([2]; probe diethoxyfluorescein): > 5 | IC50 shift at 0.5 h ([4]; probe 7-benzyloxyquinoline): 2

CCOC(=O)n1ccn(C)c1=S [CARBIMAZOLE]
Stability [7]: Unstable | IC50 shift at 0.5 h [2]: > 5 | IC50 shift at 0.5 h [8]: > 5 | IC50 shift at 0.5 h [4]: > 5

O=C(O)c1cc(/N=N/c2ccc(S(=O)(=O)Nc3ccccn3)cc2)ccc1O [SULFASALAZINE]
Stability [5]: Stable | IC50 shift at 0.5 h [6, 10]: < 2

Nc1ccc(S(=O)(=O)Nc2ccnn2-c2ccccc2)cc1 [SULFAPHENAZOLE]
Stability [1]: Unstable

CC/C(=C(/CC)c1ccc(O)cc1)c1ccc(O)cc1 [DIETHYLSTILBESTROL]
IC50 shift at 0.5 h [9]: 2 | Stability [7]: Unstable

CC[C@H]1OC(=O)[C@H](C)[C@@H](O[C@H]2C[C@@](C)(OC)[C@@H](O)[C@H](C)O2)[C@H](C)[C@@H](O[C@@H]2O[C@H](C)C[C@H](N(C)C)[C@H]2O)[C@](C)(OC)C[C@@H](C)C(=O)[C@H](C)[C@@H](O)[C@]1(C)O [CLARITHROMYCIN]
IC50 shift at 0.5 h ([2]; probe diethoxyfluorescein): > 5 | Stability [5]: Stable | IC50 shift at 0.5 h ([4]; probe 7-benzyloxyquinoline): > 5

C[N+]1(C)[C@@H]2CC[C@H]1C[C@@H](OC(=O)C(O)c1ccccc1)C2 (stereo not given in full) [HOMATROPINE METHYLBROMIDE]
IC50 shift at 0.5 h [8, 11]: < 2

COc1ccc2[nH]c([S+]([O-])Cc3ncc(C)c(OC)c3C)nc2c1 (stereo not given) [OMEPRAZOLE]
Stability [7]: Unstable | IC50 shift at 0.5 h [2]: 2 | IC50 shift at 0.5 h [6]: < 2

Cc1coc2c1CCC(C)C2 (stereo not given) [MENTHOFURAN]
IC50 shift at 0.5 h [6, 10]: < 2

Oc1ccc2c(c1)[C@@]13CCCC[C@@]1(O)[C@@H](C2)N(CC1CCC1)CC3 [BUTORPHANOL]
Stability [5]: Stable | IC50 shift at 0.5 h [8, 11]: < 2

CN1CCC[C@@H]1CCO[C@](C)(c1ccccc1)c1ccc(Cl)cc1 [CLEMASTINE]
IC50 shift at 0.5 h [2]: 2 | Stability [5]: Stable | IC50 shift at 0.5 h [4]: > 5 | IC50 shift at 0.5 h [6]: < 2

O=c1ccc2ccccc2o1 [COUMARIN]
Stability [3]: Unstable

Cc1cn([C@H]2C=C[C@@H](CO)O2)c(=O)[nH]c1=O [STAVUDINE]
Stability [3]: Unstable

CN(C)c1ccc(O)c2c1C[C@H]1C[C@H]3[C@H](N(C)C)C(O)=C(C(N)=O)C(=O)[C@@]3(O)C(O)=C1C2=O [MINOCYCLINE]
Stability [3]: Unstable

CC1(C)[C@@H](O)CC[C@]2(C)[C@H]3C(=O)C=C4[C@@H]5C[C@@](C)(C(=O)O)CC[C@]5(C)CC[C@@]4(C)[C@]3(C)CC[C@@H]12 [ENOXOLONE]
IC50 shift at 0.5 h ([9]; probe ethoxyresorufin): 2 | Stability [5]: Stable

O=C(OCC(O)CO)c1ccccc1Nc1ccnc2cc(Cl)ccc12 (stereo not given) [GLAFENINE]
Stability [1]: Unstable

C[C@]12CC[C@@H]3c4ccc(O)cc4CC[C@H]3[C@@H]1C[C@@H](O)[C@@H]2O [ESTRIOL]
Stability [3]: Unstable

Cc1c(C)c2c(c(C)c1O)CCC(C)(COc1ccc(CC3SC(=O)NC3=O)cc1)O2 (stereo not given) [TROGLITAZONE]
IC50 shift at 0.5 h [2]: 2 | Stability [3]: Unstable
